Data reported in patent US11998610B2, “Conjugates and methods of using the same” (Flagship Pioneering Innovations V, Inc., priority 2018, dated 2024).
Non-standard residues stand in square brackets, D forms with d. Residues, ends and D or L forms follow the SMILES beside them. *: point of attachment. Butyryl = CCCC(=O)*

Legend:
[1] = Stability of conjugates in Simulated Gastric Fluid (SGF); format: in vitro ADME; settings: simulated gastric fluid pH 1.6 with pepsin, 1 μM, 37° C.
Experimental: Assay 1. Stability of conjugates in Simulated Gastric Fluid (SGF). This assay was used to assess the stability of a conjugate in a stomach. Medium was prepared by dissolving 2 g of sodium chloride in 0.6 L in ultrapure water (MilliQ®, Millipore Sigma, Darmstadt, Germany). The pH was adjusted to 1.6 with 1N hydrochloric acid, and the volume was then adjusted to 1 L with purified water. 60 mg FaSSIF powder (Biorelevant™, London, UK) were dissolved in 500 mL buffer (above). Pepsin was added (0.1 mg/mL) (Millipore Sigma, Darmstadt, Germany), and the solution was stirred. The resulting SGF media were used fresh for each experiment. Test compounds were dissolved in DMSO stock to 1 mM. An aliquot of the DMSO stock solution was removed and diluted in the SGF Media in 15 mL falcon tubes to generate a total compound concentration of 1 μM. A 1 mL aliquot was immediately removed and diluted once with 1 volume of acetonitrile for T0 timepoint. The mixture was sealed and mixed at 37° C. in an incubator. Aliquots (1 mL) were removed at regular intervals and immediately quenched by the addition of 1 volume of acetonitrile. The resulting samples were analyzed by LC/MS to determine degradation rates in SGF.

[2] = In vitro Colonic Material Stability Assay; format: in vitro ADME; settings: for Assay 3 (% Remaining at 24 h): colonic material slurry, anaerobic, 1 or 10 μM
Experimental: Assay 3 In vitro Colonic Material Stability Assay. This assay was used to assess the stability of an acylated active agent in a large intestine. All experiments were performed in an anaerobic chamber containing 90% nitrogen, 5% hydrogen and 5% carbon dioxide. Colonic material was resuspended as a slurry (15% w/v final concentration) in pre-reduced, anaerobically sterilized dilution blanks (Anaerobe Systems AS-908). The colonic material was then inoculated into 96 well plates containing YCFAC media (Anaerobe Systems AS-680) or other suitable media (6.7 μL slurry into 1 mL total media). Compounds or groups of compounds were added to each individual well to reach a final analyte concentration of 1 or 10 μM, and the material was mixed by pipetting. Sample was removed after set timepoints (0, 120, 240, 480, 1440, 2880 minutes after initiation of the assay), quenched with acetonitrile containing internal standard, and analyzed by LC/MS.

E. coli BL21(DE3) = test: Cell-based assay with ClbP with LCMS, ClbP negative strain; settings: 10 μM compound, 37° C., 20 h
Experimental: (§1) This example is representative of the methods described in Example 97. ClbP was tested for its ability to activate compounds. […] Each of these three strains was struck out onto an appropriate solid media such as LB agar or BHI agar. The bacteria were then grown aerobically overnight at 37° C.
(§2) A single colony was isolated from the plate and inoculated into 10 mL LB. The liquid cultures were grown overnight aerobically at 37° C. with rocking on a nutator.
(§3) The saturated E. coli cultures were transferred into a biosafety cabinet. 5 μL of each culture was inoculated into fresh LB broth (200 μL total, 1:40 (v/v) dilution of the overnight culture), and the tested compound was added to a final concentration of 10 μM. To establish the native stability of the compound in media alone, the compound was also added to uninoculated media at a final concentration of 10 μM. Each compound was tested in duplicate with each strain or the media-alone incubation. The plate was sealed and incubated aerobically on a nutator at 37° C. for 20 h.
(§4) After 20 h, the reactions were stopped by addition of 200 μL acetonitrile. The contents of each well were mixed, and then the plate was centrifuged (4,000 rpm, 10 min). The plate was diluted serially to a final dilution of 1:100 first with Acetonitrile (10× dilution) and then with (4:1) Mobile Phase A-20 mM ammonium formate+water:Mobile Phase B-Isopropanol:Methanol:Water (4:4:2)+20 mM ammonium formate (10× dilution).
(§5) The amount of each remaining parent compound in each incubation was quantified by LC-MS analysis, with multiple-reaction monitoring targeting transitions specific to each parent compound.
(§6) The amount of compound present in the media-alone condition was normalized to 100%. The amount of parent compound present in the reaction with the ClbP-encoding E. coli (E. coli CFT073 ATCC 700928 and/or E. coli Nissle 1917) was compared to the amount present in the media-alone and expressed as a percent. Likewise, the amount of parent compound present in the reaction with the negative control E. coli BL21(DE3) was compared to the amount present in the media-alone and expressed as a percent.
(§7) In an ideal case, the amount of residual starting material in the reaction(s) with ClbP-encoding E. coli was <25% of the amount in the E. coli BL21(DE3) and media-alone conditions. In an acceptable case, the amount of residual starting material in the reaction(s) with ClbP-encoding E. coli was 25-75% of the amount in the E. coli BL21(DE3) and media-alone conditions. In a non-preferred case, the amount of residual starting material in the reaction(s) with ClbP-encoding E. coli was >75% of the amount in the E. coli BL21(DE3) and media-alone conditions.

[3] = test system: E. coli CFT073 ATCC 700928 and/or E. coli Nissle 1917; test: Cell-based assay with ClbP with LCMS, ClbP positive strain; settings: ClbP-encoding E. coli, 10 μM compound, 37° C., 20 h
Experimental: as §1, §2, §3, §4, §5, §6, §7

[4] = Stability of conjugates in Simulated Intestinal Fluid (SIF); format: in vitro ADME; settings: simulated intestinal fluid pH 6.7 with pancreatin, 1 μM, 37° C.
Experimental: Assay 2. Stability of conjugates in Simulated Intestinal Fluid (SIF). This assay was used to assess the stability of a conjugate in a small intestine. Phosphate buffer was prepared by dissolving 0.42 g of sodium hydroxide pellets and 3.95 g of monobasic sodium phosphate monohydrate and 6.19 g of sodium chloride in ultrapure water (MilliQ®, Millipore Sigma, Darmstadt, Germany). The pH was adjusted to 6.7 using aq. HCl and aq. NaOH, as necessary, and the solution was diluted with ultrapure water to produce 1 L of the pH 6.7 buffer. 112 mg FaSSIF powder (Biorelevant™, London, UK) was dissolved in 50 mL of the pH 6.7 buffer. 2 to 3 mL of the resulting solution were then added to 500 mg pancreatin (Millipore Sigma, Darmstadt, Germany). The resulting mixture was agitated by finger tapping the vessel containing the mixture until milky suspension formed. At this time, the remainder of the 50 mL FaSSiF/pH 6.7 buffer solution was added. The resulting suspension was flipped upside down 10 times to produce SIF, which was used fresh. Test compounds were dissolved in DMSO stock to 1 mM. An aliquot of the DMSO stock solution was removed and diluted in the SIF media in 15 mL falcon tubes to produce a mixture with a tested compound concentration of 1 μM. A 1 mL aliquot was immediately removed and diluted once with 1 volume of acetonitrile for T0 timepoint. The mixture was sealed and agitated at 37° C. in an incubator. Aliquots (1 mL) were removed at regular intervals and immediately quenched by the addition of 1 volume of acetonitrile. The resulting samples were analyzed by LC/MS to determine degradation rates

Row | SMILES | Assay 1 (SGF) (% Remaining @ 1 hours) [1] | Assay 3 (% Remaining at 24 h) [2] | % Remaining in ClbP Negative Relative to Media-Only (E. coli BL21(DE3)) | % Remaining in ClbP Positve Relative to Media-Only [3] | Assay 2 (SIF) (% @ Remaining 4 hours) [4] | Selective delivery to the colon (conclusion from Table 2) ([2]; from SGF, SIF and colonic material stability)
1 | CCCC(=O)N[C@H](CC(N)=O)C(=O)N[C@@H](C)CCC(=O)Oc1ccccc1 [Example 25, Phenyl (S)-4-((R)-4-amino-2-butyramido-4-oxobutanamido)pentanoate] | C (>75% of the tested compound remaining) | B (25-75% of the tested compound remaining) | − (>75% compound remaining in the 20 μM WT ClbP reaction relative to the no-enzyme control) | + (between 25-75% compound remaining in the 20 μM WT ClbP reaction relative to the no-enzyme control) |  | 
2 | CCCCCCCCCCCCOC(=O)N[C@H](CC(N)=O)C(=O)N[C@@H](C)C(=O)OC [Example 59, Methyl ((dodecyloxy)carbonyl)-D-asparaginyl-L-alaninate] |  | C (>75% of the tested compound remaining) | ++ (<25% compound remaining in the 20 μM WT ClbP reaction relative to the control) | ++ (<25% compound remaining in the 20 μM WT ClbP reaction relative to the control) |  | 
3 | CCCCCCCC(=O)N[C@H](CC(N)=O)C(=O)N[C@@H](C)CNC(=O)OC [Example 45, Methyl ((S)-2-((R)-4-amino-2-octanamido-4-oxobutanamido)propyl)carbamate] |  | B (25-75% of the tested compound remaining) | − (>75% compound remaining in the 20 μM WT ClbP reaction relative to the no-enzyme control) | + (between 25-75% compound remaining in the 20 μM WT ClbP reaction relative to the no-enzyme control) |  | 
4 | CCCCCCOC(=O)N[C@H](CC(N)=O)C(=O)N[C@@H](C)C(=O)OC [Example 52, Methyl ((hexyloxy)carbonyl)-D-asparaginyl-L-alaninate] |  | B (25-75% of the tested compound remaining) | ++ (<25% compound remaining in the 20 μM WT ClbP reaction relative to the control) | ++ (<25% compound remaining in the 20 μM WT ClbP reaction relative to the control) |  | 
5 | CCCC(=O)N[C@H](CC(N)=O)C(=O)N[C@@H](C)C(=O)OC [Example 12, Methyl butyryl-D-asparaginyl-L-alaninate] (Butyryl-[dN]-Ala-OMe) |  | A (<25% of the tested compound remaining) | + (between 25-75% compound remaining in the 20 μM WT ClbP reaction relative to the no-enzyme control) |  | C (>75% of the tested compound remaining) | can be selectively delivered to the colon
6 | CCCCCCCC(=O)N[C@H](CC(N)=O)C(=O)NCCNC(=O)Oc1ccc2c(C)cc(=O)oc2c1 [Example 69, 4-methyl-2-oxo-2H-chromen-7-yl (R)-(2-(4-amino-2-octanamido-4-oxobutanamido)ethyl)carbamate] | C (>75% of the tested compound remaining) | A (<25% of the tested compound remaining) |  |  | A (<25% of the tested compound remaining) | 
7 | CCCCCCCCCCCCCC(=O)N[C@H](CC(N)=O)C(=O)NCCC(C)(C)C(=O)OC [Example 34, Methyl (R)-4-(4-amino-4-oxo-2-tetradecanamidobutanamido)-2,2-dimethylbutanoate] | C (>75% of the tested compound remaining) | C (>75% of the tested compound remaining) | − (>75% compound remaining in the 20 μM WT ClbP reaction relative to the no-enzyme control) | + (between 25-75% compound remaining in the 20 μM WT ClbP reaction relative to the no-enzyme control) |  | 
8 | CCCCCCCC(=O)N[C@H](CC(N)=O)C(=O)N[C@@H](C)CCC(=O)OC [Example 42, Methyl (S)-4-((R)-4-amino-2-octanamido-4-oxobutanamido)pentanoate] |  | C (>75% of the tested compound remaining) | − (>75% compound remaining in the 20 μM WT ClbP reaction relative to the no-enzyme control) | − (>75% compound remaining in the 20 μM WT ClbP reaction relative to the no-enzyme control) |  | 
9 | CCCCCCCC(=O)N[C@H](CC(N)=O)C(=O)NCCNC(=O)n1cc(F)c(=O)[nH]c1=O [Example 55, (R)—N1-(2-(5-fluoro-2,4-dioxo-1,2,3,4-tetrahydropyrimidine-1-carboxamido)ethyl)-2-octanamidosuccinamide] | C (>75% of the tested compound remaining) | A (<25% of the tested compound remaining) |  |  | A (<25% of the tested compound remaining) | 
10 | CCCCCCCC(=O)N[C@H](CC(N)=O)C(=O)NCCCC(=O)Oc1ccc2c(C)cc(=O)oc2c1 [Example 67, 4-methyl-2-oxo-2H-chromen-7-yl (R)-4-(4-amino-2-octanamido-4-oxobutanamido)butanoate] | C (>75% of the tested compound remaining) |  |  |  | A (<25% of the tested compound remaining) | 
